A short description of the data set: Monolayer dispersion threshold of metal salt on silica gel by XRD diffraction peak intensity extrapolation. The note with it: salt impregnated on silica gel at 90 °C, dried 120 °C 10 h. In kind it is physicochemical.

Here are results for five molecules from EP3412361A1, “METHOD FOR PREPARING PARTICULATE FORM CAESIUM-REMOVAL INORGANIC ION ADSORBENT AND PRODUCT AND APPLICATION THEREOF” (Tsinghua University, priority 2015, dated 2017).

Description: Through equal volume impregnation method, silica gel pellets is impregnated with a series of different concentrations of salt solution containing M^n+ ion. The impregnated solid materials are dried in an oven to obtain a silica gel intermediate M/SiO2 with a different amounts of M salt on the surface. Based on monolayer dispersion principle of a metal salt on the surface of carrier, the monolayer dispersion threshold of various kinds of M^n+ ion salts on silica gel surface is determined by X - ray diffraction method. The value is the monolayer loading of various salts on the surface of silica gel carrier.
Further, in the step (1), it is necessary to determine monolayer dispersion threshold of M^n+ ion salt on the surface of silica gel, which may be measured by loading a series of different amounts of the M^n+ ion salt onto the surface of silica gel by the solution impregnation method followed by drying to obtain the sample to be tested.
The silica gel mass is 5-10 g, and the loading amount of M^n+ ion salt on the silica gel is 0.02g, 0.05g, 0.1g, 0.5g, 1.0g, 2.0g, 3.0g, 4.0g, 5.0g, 6.0 g per g silica gel; the ratio by volume of the M^n+ ion solution to the silica gel is 0.5-2.
The obtained samples series is subjected to X-ray diffraction (XRD) and the strongest diffraction peak intensity (y-axis) is linearly correlated with the corresponding M^n+ ion salt loading (x-axis) in which the intercept on the x-axis is the monolayer dispersion threshold.
Further, in the step (1), the impregnation process is carried out in a water bath at a temperature of 90 °C, and the mixture is continuously stirred until the liquid is completely evaporated and the solute M^n+ ion salt is fully supported on the silica gel surface.
Further, in the step (1), the silica gel intermediate M/ SiO2 is dried in an oven for 10 h at a temperature of 120 °C.
Then, 1 g of silica gel pellets were added to each beaker and the beaker was placed in a water bath at a temperature of 90 °C. In the process of evaporation of water, the mixture was being stirred with a glass rod until the water evaporated and the pellets were basically dry. The beaker was dried in an oven at 120 °C for 10 hours.
Then, 1 g of silica gel pellets were added to each beaker and the beaker was placed in a water bath at a temperature of 90 °C.

Turning to `O.O.O.O.O.O.O=[N+]([O-])[O-].O=[N+]([O-])[O-].[Co+2]` [Co(NO3)2, cobalt nitrate], the “monolayer dispersion threshold on silica gel” value is recorded as 0.63 g/g.
The result for `O=S(=O)([O-])[O-].[Cu+2]` [CuSO4, copper sulfate] reads 0.79 g/g; that for `[Cl][Fe]([Cl])[Cl]` [FeCl3, ferric chloride], 0.43 g/g; that for `CC(=O)[O-].CC(=O)[O-].O.O.[Zn+2]` [Zn(AC)2, zinc acetate], 0.18 g/g.
The result for `O.O=[N+]([O-])[O-].O=[N+]([O-])[O-].[O]=[Zr+2]` [ZrO(NO3)2] reads 1.02 g/g.
